According to patent US4596811A, “Heterocyclic compounds, a process for their production and medicaments containing these compounds” (Ludwig Heumann & Co., GmbH, priority 1982, dated 1986):

Each molecule was assayed against T1, histamine-H2 receptors (isolated atrium) (Cavia porcellus, UniProt P47747) (assay: H2-antagonistic activity, pA2-values in vitro on the isolated atrium of guinea pigs). Conditions: isolated guinea pig atrium, H2 antagonism.
T1 construct: in vitro on the isolated atrium of guinea pigs; from tissue; host or cells: isolated guinea pig atrium
T1 sequence (P47747 whole entry): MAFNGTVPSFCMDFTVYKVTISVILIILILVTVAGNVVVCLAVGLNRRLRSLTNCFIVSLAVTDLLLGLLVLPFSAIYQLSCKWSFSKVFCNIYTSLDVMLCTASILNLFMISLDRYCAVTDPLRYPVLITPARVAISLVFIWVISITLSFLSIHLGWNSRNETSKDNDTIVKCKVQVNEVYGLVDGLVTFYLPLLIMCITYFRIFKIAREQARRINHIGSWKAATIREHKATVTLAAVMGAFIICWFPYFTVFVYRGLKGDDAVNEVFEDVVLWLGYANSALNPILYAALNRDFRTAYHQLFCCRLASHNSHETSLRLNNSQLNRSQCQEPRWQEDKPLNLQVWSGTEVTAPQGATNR
Assay type: cell-based
Excerpt: An accepted method for determining H2-antagonistic activity is to determine the pA2-values in vitro on the isolated atrium of guinea pigs (cf. Ariens, Molecular Pharmacology, Vol. 1, Academic Press, New York, 1964).
Work on CN(C)Cc1cc(CSCCC(=N)NS(=O)(=O)c2ccc(N)cc2)cs1 [Example 2, N-(p-aminobenzene-sulfonyl)-3-[(2-N,N-dimethylaminomethylthienyl-4)-methylthio]-propionamidine] yielded a Kb of 79.4 nM. Work on N=C(CCCCOc1cccc(CN2CCCCC2)c1)NS(=O)(=O)c1ccc(N)cc1 [Example 10] yielded a Kb of 112 nM. With N=C(CCSCc1csc(CN2CCCCC2)c1)NS(=O)(=O)c1ccc(N)cc1 [Example 12] the Kb was 63.1 nM.
